Source: patent US5776900A, “Hemoregulatory peptides” (SmithKline Beecham Corporation, priority 1995, dated 1998)
Where no end group is shown, it is not given here. [ ]: non-standard residue; d: D form. pGlu = O=C1CC[C@@H](C(=O)O)N1

Test system: human bone marrow stromal cell line, C6
Assay: Induction of colony stimulating activity by stromal cells; CSA of supernatant read in soft agar assay (CFU-C)
Format: cell-based
Details: 5% C6 supernatant, Lewis rat bone marrow cells
Procedure: Induction of Colony Stimulating Activity by Stromal Cells
The human bone marrow stromal cell line, C6, is grown to confluency in plastic tissue culture dishes in RPMI-1640 medium and 5% FBS. On the day prior to the experiment this medium is changed to DMEM without added serum. To these cultures, the compounds are added for one hour, then washed from the cultures. The medium is replaced with fresh DMEM and the cells are incubated for 24 hours at 37° C., 5% CO2. After 24 hours the C6 cell culture supernatant is collected, sterile filtered, and frozen until it can be assayed for the presence of hematopoietic colony stimulating activity (CSA) as set forth below.
Bone marrow cells are obtained from Lewis rats. They are adjusted to 10^6 cells/ml in DMEM without serum. A single layer agar system utilizing the following is used: DMEM enriched with nutrients (NaHCO3, pyruvate, amino acids, vitamins, and HEPES buffer); 0.3% Bacto agar, and 20% Lewis rat serum. To this are added dilutions of C6 cell line supernatant (10-2.5%) from above along with rat bone marrow cells (final concentration=10^5 cells/ml). The agar plates are incubated at 37° C., 5% CO2 for 7-8 days. Colonies of proliferating bone marrow cells (CFU-C) are counted utilizing a microscope. The number of agar colonies counted is proportional to the amount of CSA present within the C6 bone marrow stromal cell line supernatant.

For “(pGlu-Glu-Asp)2 -Sub-(Lys)2 ([pGlu]ED[Sub]K; not fully specified; printed as (pGlu-Glu-Asp)2 -Sub-(Lys)2; also: dimer via suberoyl-lysine linker) [Example 2]”, the “Hematopoietic Colony Stimulating Activity Using 5% Supernatant, Percent of Control” value (dose 0.01 ng/ml) was 97% of Control, the “Hematopoietic Colony Stimulating Activity Using 5% Supernatant, Percent of Control” value (dose 0.1 ng/ml) was 154% of Control and the “Hematopoietic Colony Stimulating Activity Using 5% Supernatant, Percent of Control” value (dose 1 ng/ml) was 188% of Control. The “Hematopoietic Colony Stimulating Activity Using 5% Supernatant, Percent of Control” value (dose 10 ng/ml) was 207% of Control, the “Hematopoietic Colony Stimulating Activity Using 5% Supernatant, Percent of Control” value (dose 100 ng/ml) was 241% of Control and the “Hematopoietic Colony Stimulating Activity Using 5% Supernatant, Percent of Control” value (dose 1000 ng/ml) was 192% of Control.
